# Data published in patent US20260053760A1, “Compositions Suitable for Use on Skin Afflicted with Eczema” (Kenvue Brands LLC, priority 2022, published 2026).
# System: Staphylococcus epidermidis (ATCC 12228)
# Assay: In vitro bacteria competition assay (co-culture)
# Format: cell-based
# Conditions: 1:1 co-culture with S. aureus in Nutrient Broth, 24 hours aerobic, colony counts; percentages w/v %
# Experimental: In vitro bacteria competition assay evaluated Staphylococcus epidermidis (ATCC 12228, skin health associated strain) and Staphylococcus aureus (ATCC 6538, human lesion isolate) co-culture in the presence of test materials. Percentages are w/v % in liquid medium (Nutrient Broth, Culture Media and Supplies Inc.) To mimic the microenvironment of the skin surface, an aerobic, co-culture system of S. epidermidis and S. aureus was established. 50 μL S. epidermidis and 50 μL S. aureus (a 1:1 ratio) were inoculated (50 μL at approximately 5.0×10^6 CFU/mL each) in Nutrient Broth and in the presence of the test materials as specified in Table 14 below. [table] Test groups were incubated aerobically for 24 hours (n=3 per test group) After 24 hours, each test group was plated onto agar and incubated aerobically for 24 hours […]. After incubation, colonies were counted, and CFU/mL calculated. S. epidermidis and S. aureus colonies were differentiated on agar (Tryptic Soy Agar+5% sheep's blood, BD Diagnostics) based on representative morphology.
smiles,measurement,value
"CC(O)C(=O)O (stereo not shown) [Lactic Acid (1.1%), Lactic acid]",Bacteria Competition Assay: S. epidermidis growth versus untreated,inhibited
